Values after ≈ are worked out from the molar mass of the structure shown.
Columns and labels:
[1] = tested on: Staphylococcus aureus; test: Bactericidal activity against methicillin-resistant Staphylococcus aureus after 18 to 24 hr; type: functional
[2] = tested on: Talaromyces marneffei; test: Antifungal activity against Talaromyces marneffei assessed as growth inhibition after 48 hr by agar disk diffusion method; type: functional
[3] = tested on: Aspergillus fumigatus; test: Fungicidal activity against Aspergillus fumigatus after 48 hr; type: functional
[4] = tested on: Escherichia coli; test: Bactericidal activity against Escherichia coli ATCC 25922 after 18 to 24 hr; type: functional
[5] = tested on: Aspergillus fumigatus; test: Antifungal activity against Aspergillus fumigatus assessed as growth inhibition after 48 hr by macro-dilution method; type: functional
[6] = tested on: Klebsiella pneumoniae; test: Antibacterial activity against Klebsiella pneumoniae clinical isolate assessed as growth inhibition after 24 hr by disk diffusion method; type: functional
[7] = tested on: Escherichia coli; test: Antibacterial activity against Escherichia coli ATCC 25922 assessed as growth inhibition after 24 hr by disk diffusion method; type: functional
[8] = tested on: Trichophyton mentagrophytes; test: Antifungal activity against Trichophyton mentagrophytes assessed as growth inhibition after 48 hr by macro-dilution method; type: functional
[9] = tested on: Pseudomonas aeruginosa; test: Antibacterial activity against Pseudomonas aeruginosa ATCC 9029 assessed as growth inhibition after 24 hr by macro-dilution method; type: functional; conditions: ATCC 9029, 24 h
[10] = tested on: Streptococcus pyogenes; test: Antibacterial activity against Streptococcus pyogenes clinical isolate assessed as growth inhibition after 24 hr by disk diffusion method; type: functional
[11] = tested on: Pseudomonas aeruginosa; test: Bactericidal activity against Pseudomonas aeruginosa ATCC 9029 after 18 to 24 hr; type: functional
[12] = tested on: Candida albicans; test: Fungicidal activity against Candida albicans ATCC 90028 after 48 hr; type: functional; conditions: ATCC 90028, 48 h
[13] = tested on: Trichophyton mentagrophytes; test: Fungicidal activity against Trichophyton mentagrophytes after 48 hr; type: functional
[14] = tested on: Trichophyton mentagrophytes; test: Antifungal activity against Trichophyton mentagrophytes assessed as growth inhibition after 48 hr by agar disk diffusion method; type: functional
[15] = tested on: Pseudomonas aeruginosa; test: Antibacterial activity against Pseudomonas aeruginosa ATCC 9029 assessed as growth inhibition after 24 hr by disk diffusion method; type: functional
[16] = tested on: Staphylococcus aureus; test: Antibacterial activity against methicillin-resistant Staphylococcus aureus assessed as growth inhibition after 24 hr by disk diffusion method; type: functional
[17] = tested on: Talaromyces marneffei; test: Antifungal activity against Talaromyces marneffei assessed as growth inhibition after 48 hr by macro-dilution method; type: functional
[18] = tested on: Escherichia coli; test: Antibacterial activity against Escherichia coli ATCC 8739 assessed as growth inhibition after 24 hr by macro-dilution method; conditions: ATCC 8739, 24 h
[19] = tested on: Klebsiella pneumoniae; test: Bactericidal activity against Klebsiella pneumoniae clinical isolate after 18 to 24 hr; type: functional
[20] = tested on: Radical scavenging activity; test: Antioxidant activity assessed as DPPH radical scavenging activity at 2 ug/mL after 30 min by spectrophotometric analysis relative to control; type: functional
[21] = tested on: Klebsiella pneumoniae; test: Antibacterial activity against Klebsiella pneumoniae clinical isolate assessed as growth inhibition after 24 hr by macro-dilution method; type: functional
[22] = tested on: Radical scavenging activity; test: Antioxidant activity assessed as DPPH radical scavenging activity at 6 ug/mL after 30 min by spectrophotometric analysis relative to control; type: functional
[23] = tested on: Radical scavenging activity; test: Antioxidant activity assessed as DPPH radical scavenging activity at 4 ug/mL after 30 min by spectrophotometric analysis relative to control; type: functional
[24] = tested on: Radical scavenging activity; test: Antioxidant activity assessed as DPPH radical scavenging activity at 10 ug/mL after 30 min by spectrophotometric analysis relative to control; type: functional
[25] = tested on: Radical scavenging activity; test: Antioxidant activity assessed as DPPH radical scavenging activity at 8 ug/mL after 30 min by spectrophotometric analysis relative to control; type: functional
[26] = tested on: Staphylococcus aureus; test: Antibacterial activity against methicillin-resistant Staphylococcus aureus assessed as growth inhibition after 24 hr by macro-dilution method; type: functional
[27] = tested on: Talaromyces marneffei; test: Fungicidal activity against Talaromyces marneffei after 48 hr; type: functional
[28] = tested on: Aspergillus fumigatus; test: Antifungal activity against Aspergillus fumigatus assessed as growth inhibition after 48 hr by agar disk diffusion method; type: functional
[29] = tested on: Radical scavenging activity; test: Antioxidant activity assessed as DPPH radical scavenging activity after 30 min by spectrophotometric analysis; type: functional
[30] = tested on: Streptococcus pyogenes; test: Bactericidal activity against Streptococcus pyogenes clinical isolate after 18 to 24 hr; type: functional
[31] = tested on: Candida albicans; test: Antifungal activity against Candida albicans ATCC 90028 assessed as growth inhibition after 48 hr by agar disk diffusion method; type: functional
[32] = tested on: Streptococcus pyogenes; test: Antibacterial activity against Streptococcus pyogenes clinical isolate assessed as growth inhibition after 24 hr by macro-dilution method; type: functional
[33] = tested on: Candida albicans; test: Antifungal activity against Candida albicans ATCC 90028 assessed as growth inhibition after 48 hr by macro-dilution method; type: functional; conditions: ATCC 90028, 48 h

SMILES	MBC [1] [µg/mL]	diameter of the inhibition zone (DIZ) [2] [mm]	MFC [3] [µg/mL]	MBC [4] [µg/mL]	MIC [5] [µg/mL]	diameter of the inhibition zone (DIZ) [6] [mm]	diameter of the inhibition zone (DIZ) [7] [mm]	MIC [8] [µg/mL]	MIC [9] [µg/mL]	diameter of the inhibition zone (DIZ) [10] [mm]	MBC [11] [µg/mL]	MFC [12] [µg/mL]	diameter of the inhibition zone (DIZ) [15] [mm]	diameter of the inhibition zone (DIZ) [16] [mm]	Activity [20] [%]	Activity [22] [%]	Activity [23] [%]	Activity [24] [%]	Activity [25] [%]	IC50 [29] [µg/mL]	other results
CC1(c2cccc(O)c2)NNC(=O)CO1 (stereo not given)	25 (≈ 120 µM)	14.5	50 (≈ 240 µM)	50 (≈ 240 µM)	12.5 (≈ 60 µM)	15.1	25.4	12.5 (≈ 60 µM)	12.5 (≈ 60 µM)	19.4	25 (≈ 120 µM)	25 (≈ 120 µM)	26.2	19.1	16.7	50.2	31.8	82.8	66.3	5.99 (≈ 28.8 µM)	MFC [13]: 25 µg/mL (≈ 120 µM); diameter of the inhibition zone (DIZ) [14]: 17.2 mm; MIC [17]: 12.5 µg/mL (≈ 60 µM); MIC [18]: 12.5 µg/mL (≈ 60 µM); MBC [19]: 25 µg/mL (≈ 120 µM); MIC [21]: 12.5 µg/mL (≈ 60 µM); MIC [26]: 12.5 µg/mL (≈ 60 µM); MFC [27]: 50 µg/mL (≈ 240 µM); diameter of the inhibition zone (DIZ) [28]: 22.4 mm; MBC [30]: 25 µg/mL (≈ 120 µM); diameter of the inhibition zone (DIZ) [31]: 25.5 mm; MIC [32]: 12.5 µg/mL (≈ 60 µM); MIC [33]: 12.5 µg/mL (≈ 60 µM)
O=C1O[C@H]([C@@H](O)CO)C(O)=C1O [ASCORBIC ACID]	–	–	–	–	–	–	–	–	–	–	–	–	–	–	18.4	53.4	34.9	87	69.3	4.45 (≈ 25.3 µM)	–
CC1(c2ccc(O)cc2O)NNC(=O)CO1 (stereo not given)	100 (≈ 446 µM)	11.1	100 (≈ 446 µM)	100 (≈ 446 µM)	50 (≈ 223 µM)	14.1	17.2	50 (≈ 223 µM)	50 (≈ 223 µM)	18.1	> 100	100 (≈ 446 µM)	24.4	17.1	15.7	49	30.2	81.1	64	6.28 (≈ 28 µM)	MFC [13]: 100 µg/mL (≈ 446 µM); diameter of the inhibition zone (DIZ) [14]: 14.1 mm; MIC [17]: 50 µg/mL (≈ 223 µM); MIC [18]: 50 µg/mL (≈ 223 µM); MBC [19]: 100 µg/mL (≈ 446 µM); MIC [21]: 50 µg/mL (≈ 223 µM); MIC [26]: 50 µg/mL (≈ 223 µM); MFC [27]: > 100 µg/mL; diameter of the inhibition zone (DIZ) [28]: 16.2 mm; MBC [30]: 100 µg/mL (≈ 446 µM); diameter of the inhibition zone (DIZ) [31]: 20.2 mm; MIC [32]: 50 µg/mL (≈ 223 µM); MIC [33]: 50 µg/mL (≈ 223 µM)
O=C(O)c1cn(C2CC2)c2cc(N3CCNCC3)c(F)cc2c1=O [CIPROFLOXACIN]	–	–	–	–	–	–	27.5	–	–	–	–	–	31.5	21	–	–	–	–	–	–	–

Source: ChEMBL document CHEMBL3045916, “Synthesis, characterization, biological evaluation and in silico screening of oxadiazinanones” (Med Chem Res, 2013)
